Data on 20 molecules can be found in PubChem BioAssay AID330 (DTP/NCI, 2004).

Where “and” joins values, the source holds several entries; their conditions need not be identical. Equal values may be shown once. Inconclusive results and toxic doses are left out.

The test system of the assay is P388 leukemia ip, CD2F1 mice, survival T/C. Kind of assay: NCI In Vivo Anticancer Drug Screen. Data for tumor model P388 Leukemia (intraperitoneal) in CD2F1 (CDF1) mice. The conditions noted are these: endpoint: median survival time, higher = longer survival. The method in brief: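 Mice carrying the transplanted tumor received test compound or vehicle. Survival was recorded in each group, and the value is the treated-group measurement divided by that of the vehicle-treated control group.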

The mark [1] stands for this setting: dose: 60.0 mg/kg/injection, schedule: Q01DX005 (ip), vehicle: saline with Tween-80.
Setting [2] is: dose: 120.0 mg/kg/injection, schedule: Q01DX005 (ip), vehicle: saline with Tween-80.
[3] abbreviates: dose: 50.0 mg/kg/injection, schedule: Q01DX005 (ip), vehicle: saline with Tween-80.
Where [4] appears, read: dose: 200.0 mg/kg/injection, schedule: Q01DX005 (ip), vehicle: saline with Tween-80.

Take `COc1ccc(-c2cnnn2Cc2ccco2)cc1`: the T/C is 105 % of control (dose: 100.0 mg/kg/injection, schedule: Q04DX002 (ip), vehicle: Klucel (hydroxypropylcellulose) (HPC)); 100 % of control (dose: 200.0 mg/kg/injection, schedule: Q04DX002 (ip), vehicle: Klucel (hydroxypropylcellulose) (HPC)); 102 % of control (dose: 400.0 mg/kg/injection, schedule: Q04DX002 (ip), vehicle: Klucel (hydroxypropylcellulose) (HPC)).

Turning to `COC(=O)[C@@H]1[C@H]2CC(C)(C)C[C@H]2C2=CCC[C@@H]21`, the T/C is, setting by setting: (dose: 18.5 mg/kg/injection, schedule: Q01DX005 (ip), vehicle: suspension in saline) 96 % of control; (dose: 37.0 mg/kg/injection, schedule: Q01DX005 (ip), vehicle: suspension in saline) 98 % of control; (dose: 74.0 mg/kg/injection, schedule: Q01DX005 (ip), vehicle: suspension in saline) 98 % of control.

Consider `O=C1OI(Cl)c2ccccc21`, for which the T/C runs as follows: under setting [1], 104 % of control; under setting [2], 104 % of control.

With `Cc1ccc2c(c1)nc(C)c(=O)n2CC1CCCN2CCCC[C@H]12` (stereo partly specified), the T/C (dose: 15.0 mg/kg/injection, schedule: Q01DX005 (ip), vehicle: saline with Tween-80) was 97 % of control; the T/C (dose: 30.0 mg/kg/injection, schedule: Q01DX005 (ip), vehicle: saline with Tween-80) is 97 % of control; the T/C under setting [1] was 97 % of control.

Regarding `Cn1c(O)c(N=NC(=S)NC(=O)C23CC4CC(CC(C4)C2)C3)c2ccccc21`, the T/C was 96 % of control (dose: 1.56 mg/kg/injection, schedule: Q01DX005 (ip), vehicle: saline with Tween-80); 97 % of control (dose: 3.12 mg/kg/injection, schedule: Q01DX005 (ip), vehicle: saline with Tween-80); 103 % of control (dose: 6.25 mg/kg/injection, schedule: Q01DX005 (ip), vehicle: saline with Tween-80); 86 % of control under setting [3]; 89 % of control under setting [4].

`COc1ccc(OC)c2c(Cl)cc(NCCCCCCCCNc3cc(Cl)c4c(OC)ccc(OC)c4n3)nc12`: the T/C was 101 % of control (dose: 30.0 mg/kg/injection, schedule: Q01DX005 (ip), vehicle: Klucel (hydroxypropylcellulose) (HPC)); 101 % of control (dose: 60.0 mg/kg/injection, schedule: Q01DX005 (ip), vehicle: Klucel (hydroxypropylcellulose) (HPC)); 100 % of control (dose: 120.0 mg/kg/injection, schedule: Q01DX005 (ip), vehicle: Klucel (hydroxypropylcellulose) (HPC)); 100 % of control (dose: 240.0 mg/kg/injection, schedule: Q01DX005 (ip), vehicle: Klucel (hydroxypropylcellulose) (HPC)).

With `CC(=O)N1CCCN(C)/C1=N/[N+](=O)[O-]`, the T/C is, setting by setting: (dose: 60.0 mg/kg/injection, schedule: Q01DX005 (ip), vehicle: saline) 103 % of control; (dose: 120.0 mg/kg/injection, schedule: Q01DX005 (ip), vehicle: saline) 100 % of control; (dose: 240.0 mg/kg/injection, schedule: Q01DX005 (ip), vehicle: saline) 108 % of control.

Turning to `COC(=O)C(C)N(CCCl)P(=O)(N1CC1)N1CC1` (stereo unspecified), the T/C reads like this: (dose: 7.5 mg/kg/injection, schedule: Q01DX005 (ip), vehicle: saline) 119 % of control; (dose: 30.0 mg/kg/injection, schedule: Q01DX005 (ip), vehicle: saline) 182 % of control.

As for `CC(=O)ON(C(C)=O)c1ccc(C(=O)OC2(C)CC(C)(C)[N+]([O-])=N2)cc1` (stereo unspecified) (tested in a mixture with another compound), the T/C is, setting by setting: (dose: 12.5 mg/kg/injection, schedule: Q01DX009 (ip), vehicle: water) 95 % of control; (dose: 25.0 mg/kg/injection, schedule: Q01DX009 (ip), vehicle: water) 101 % of control; (dose: 50.0 mg/kg/injection, schedule: Q01DX009 (ip), vehicle: water) 94 % of control; (dose: 200.0 mg/kg/injection, schedule: Q01DX009 (ip), vehicle: water) 106 % of control.

As to `Nc1nc(N)nc(NCCSS(=O)(=O)O)n1`, the T/C was 94 % of control (dose: 50.0 mg/kg/injection, schedule: Q01DX009 (ip), vehicle: Klucel (hydroxypropylcellulose) (HPC)); 94 % of control (dose: 100.0 mg/kg/injection, schedule: Q01DX009 (ip), vehicle: Klucel (hydroxypropylcellulose) (HPC)); 91 % of control (dose: 200.0 mg/kg/injection, schedule: Q01DX009 (ip), vehicle: Klucel (hydroxypropylcellulose) (HPC)).

With `C=C1C(=O)OC2CCCC(O)C12` (stereo unspecified), the T/C (dose: 50.0 mg/kg/injection, schedule: Q04DX003 (ip), vehicle: Klucel (hydroxypropylcellulose) (HPC)) was 106 % of control and 96 % of control; the T/C (dose: 100.0 mg/kg/injection, schedule: Q04DX003 (ip), vehicle: Klucel (hydroxypropylcellulose) (HPC)) is 104 % of control; the T/C (dose: 200.0 mg/kg/injection, schedule: Q04DX003 (ip), vehicle: Klucel (hydroxypropylcellulose) (HPC)) was 115 % of control.

For `CCOC(=O)Nc1cc2ncc(-c3ccccc3)nc2c(N)n1`, the T/C was 97 % of control (dose: 50.0 mg/kg/injection, schedule: Q01DX001 (ip), vehicle: saline with Tween-80); 93 % of control (dose: 100.0 mg/kg/injection, schedule: Q01DX001 (ip), vehicle: saline with Tween-80); 90 % of control (dose: 200.0 mg/kg/injection, schedule: Q01DX001 (ip), vehicle: saline with Tween-80).

As to `O=C(Nc1cccc(C(=O)Nc2ccc(C3=NCCN3)cc2)c1)c1ccc(C2=NCCN2)cc1`, the T/C was 118 % of control (dose: 6.25 mg/kg/injection, schedule: Q01DX009 (ip), vehicle: saline); 100 % of control (dose: 6.25 mg/kg/injection, schedule: Q04DX003 (ip), vehicle: saline); 118 % of control (dose: 12.5 mg/kg/injection, schedule: Q01DX009 (ip), vehicle: saline); 100 % of control (dose: 12.5 mg/kg/injection, schedule: Q04DX003 (ip), vehicle: saline); 100 % of control (dose: 25.0 mg/kg/injection, schedule: Q04DX003 (ip), vehicle: saline).

Consider `c1ccc2c(c1)Sc1ccccc1C2=C1c2ccccc2Sc2ccccc21`, for which the T/C was 88 % of control under setting [3]; 90 % of control (dose: 100.0 mg/kg/injection, schedule: Q01DX005 (ip), vehicle: saline with Tween-80); 88 % of control under setting [4].

Regarding `COC(=O)C(CSCc1ccccc1)NC(=O)CCNC(=O)c1ccccc1` (stereo unspecified), the T/C is, setting by setting: (dose: 12.5 mg/kg/injection, schedule: Q01DX009 (ip), vehicle: distilled water + Tween-80) 100 % of control; (dose: 25.0 mg/kg/injection, schedule: Q01DX009 (ip), vehicle: distilled water + Tween-80) 94 % of control; (dose: 50.0 mg/kg/injection, schedule: Q01DX009 (ip), vehicle: distilled water + Tween-80) 98 % of control; (dose: 100.0 mg/kg/injection, schedule: Q01DX009 (ip), vehicle: distilled water + Tween-80) 91 % of control; (dose: 200.0 mg/kg/injection, schedule: Q01DX009 (ip), vehicle: distilled water + Tween-80) 111 % of control.

With `O=C1C=CC2(CCC23C=C(Br)C(=O)O3)O1` (stereo unspecified), the T/C is 102 % of control (dose: 5.0 mg/kg/injection, schedule: Q01DX009 (ip), vehicle: Klucel (hydroxypropylcellulose) (HPC)); 108 % of control (dose: 10.0 mg/kg/injection, schedule: Q01DX009 (ip), vehicle: Klucel (hydroxypropylcellulose) (HPC)); 106 % of control (dose: 20.0 mg/kg/injection, schedule: Q01DX009 (ip), vehicle: Klucel (hydroxypropylcellulose) (HPC)).

For `COC(=O)/C=C(\C(=O)OC)C1=C(N2CCCC2)CC(C)(C)CC1=O`, the T/C runs as follows: (dose: 50.0 mg/kg/injection, schedule: Q01DX005 (ip), vehicle: Klucel (hydroxypropylcellulose) (HPC)) 102 % of control; (dose: 100.0 mg/kg/injection, schedule: Q01DX005 (ip), vehicle: Klucel (hydroxypropylcellulose) (HPC)) 100 % of control and 95 % of control; (dose: 200.0 mg/kg/injection, schedule: Q01DX005 (ip), vehicle: Klucel (hydroxypropylcellulose) (HPC)) 100 % of control and 101 % of control.

Take `COC(=O)Nc1ccc(C(=O)c2ccccc2)cc1`: the T/C (dose: 50.0 mg/kg/injection, schedule: Q01DX009 (ip), vehicle: saline) is 98 % of control; the T/C (dose: 100.0 mg/kg/injection, schedule: Q01DX009 (ip), vehicle: saline) was 99 % of control; the T/C (dose: 200.0 mg/kg/injection, schedule: Q01DX009 (ip), vehicle: saline) was 93 % of control.

In the case of `ON=C(C(Cl)(Cl)Cl)C(Cl)(Cl)Cl`, the T/C is 100 % of control under setting [1]; 100 % of control under setting [2]; 97 % of control (dose: 240.0 mg/kg/injection, schedule: Q01DX005 (ip), vehicle: saline with Tween-80).

On to `Cc1ccc2ccc3ccc(CCl)nc3c2n1`, for which the T/C is 95 % of control (dose: 3.12 micromoles/kg, schedule: Q01DX005 (ip), vehicle: other); 99 % of control (dose: 6.25 micromoles/kg, schedule: Q01DX005 (ip), vehicle: other); 102 % of control (dose: 12.5 micromoles/kg, schedule: Q01DX005 (ip), vehicle: other).
